Here are results for 23 compounds from patent publication US20250312352A1, “GLP-1R MODULATING COMPOUNDS” (Gilead Sciences, Inc., priority 2021, published 2025).

The experiment deals with T1, GLP-1R (Homo sapiens, UniProt P43220).
T1 construct: host or cells: CHO cells
Briefly: GLP-1R activation cAMP assay (Assay 1 or Assay 2). It counts as cell-based. Particulars: cAMP increase in CHO cells stably expressing GLP-1R; compounds run on one of the two cAMP assays. Put shortly: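 EC50 values come from a sigmoidal fit of HTRF-detected cAMP rise versus log agonist concentration. GLP-1R-expressing CHO cells, equilibrated 1 h at 37 °C in HBSS with HEPES and BSA, received a 10-point compound dose series for 30 min before detection.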
(cAMP levels reflect the balance of adenylyl cyclase and phosphodiesterase activity.)

T1 sequence (P43220 24-463): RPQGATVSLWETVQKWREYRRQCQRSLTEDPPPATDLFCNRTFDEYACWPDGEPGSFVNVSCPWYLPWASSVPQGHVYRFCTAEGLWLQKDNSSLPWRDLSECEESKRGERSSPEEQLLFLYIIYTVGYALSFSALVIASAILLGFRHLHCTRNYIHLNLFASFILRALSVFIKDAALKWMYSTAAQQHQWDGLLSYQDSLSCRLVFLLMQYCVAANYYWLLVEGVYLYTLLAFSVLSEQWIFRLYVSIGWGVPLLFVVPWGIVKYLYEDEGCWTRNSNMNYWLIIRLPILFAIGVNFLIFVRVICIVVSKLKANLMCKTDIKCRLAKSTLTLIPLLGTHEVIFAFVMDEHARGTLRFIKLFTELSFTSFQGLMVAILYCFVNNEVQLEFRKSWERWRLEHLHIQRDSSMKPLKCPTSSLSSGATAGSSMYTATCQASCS

For `COCCn1c(Cc2cc(F)c(-c3cccc(OCc4ccc(C#CC(C)(C)S(C)(=O)=O)nc4)n3)cc2F)nc2ccc(C(=O)O)cc21` [Example 221, 2-[[2,5-difluoro-4-[6-[[6-(3-methyl-3-methylsulfonyl-but-1-ynyl)-3-pyridyl]methoxy]-2-pyridyl]phenyl]methyl]-3-(2-methoxyethyl)benzimidazole-5-carboxylic acid], the midpoint of the response, the EC50, lay at 1070 nM.
In the case of `NC(=O)c1ccc(COc2nccc(-c3cc(F)c(Cc4nc5ccc(C(=O)O)cc5n4C[C@@H]4CCO4)cc3F)n2)cn1` [Example 222, (S)-2-(4-(2-((6-carbamoylpyridin-3-yl)methoxy)pyrimidin-4-yl)-2,5-difluorobenzyl)-1-(oxetan-2-ylmethyl)-1H-benzo[d]imidazole-6-carboxylic acid], a half-maximal effect (EC50) was put at 3.59 nM.
Then `NC(=O)c1ccc(COc2nccc(-c3cc(F)c(Cc4nc5ccc(C(=O)O)cc5n4C[C@@H]4CCO4)cc3F)n2)c(OC(F)F)n1` [Example 223, (S)-2-(4-(2-((6-carbamoyl-2-(difluoromethoxy)pyridin-3-yl)methoxy)pyrimidin-4-yl)-2,5-difluorobenzyl)-1-(oxetan-2-ylmethyl)-1H-benzo[d]imidazole-6-carboxylic acid], with 0.51 nM; and `CO[C@H](C)Cn1c(Cc2cc(F)c(-c3cccc(OCc4ncc(-c5cnn(C)c5)s4)n3)cc2F)nc2ccc(C(=O)O)cc21` [Example 224, 2-[[2,5-difluoro-4-[6-[[5-(1-methylpyrazol-4-yl)thiazol-2-yl]methoxy]-2-pyridyl]phenyl]methyl]-3-[(2R)-2-methoxypropyl]benzimidazole-5-carboxylic acid], with 1.11 nM; and `COCCn1c(Cc2cc(F)c(-c3cccc(OCc4ccc(-c5cnn(C6CC6)c5)cc4F)n3)cc2F)nc2ccc(C(=O)O)cc21` [Example 225, 2-(4-(6-((4-(1-cyclopropyl-1H-pyrazol-4-yl)-2-fluorobenzyl)oxy)pyridin-2-yl)-2,5-difluorobenzyl)-1-(2-methoxyethyl)-1H-benzo[d]imidazole-6-carboxylic acid], with 0.7 nM.
Next, `COCCn1c(Cc2cc(F)c(-c3cccc(OCc4ccc(-c5cnn(C6CCOCC6)c5)cc4F)n3)cc2F)nc2ccc(C(=O)O)cc21` [Example 226, 2-(2,5-difluoro-4-(6-((2-fluoro-4-(1-(tetrahydro-2H-pyran-4-yl)-1H-pyrazol-4-yl)benzyl)oxy)pyridin-2-yl)benzyl)-1-(2-methoxyethyl)-1H-benzo[d]imidazole-6-carboxylic acid]: 8.36 nM.
Next, `COCCn1c(Cc2cc(F)c(-c3cccc(OCc4ccc(-c5cnn(CCN6CCOCC6)c5)cc4F)n3)cc2F)nc2ccc(C(=O)O)cc21` [Example 227, 2-(2,5-difluoro-4-(6-((2-fluoro-4-(1-(2-morpholinoethyl)-1H-pyrazol-4-yl)benzyl)oxy)pyridin-2-yl)benzyl)-1-(2-methoxyethyl)-1H-benzo[d]imidazole-6-carboxylic acid]: 3.45 nM; `COCCn1c(Cc2cc(F)c(-c3cccc(OCc4ccc(-c5ccc(N6CCCC6)nc5)cc4F)n3)cc2F)nc2ccc(C(=O)O)cc21` [Example 228, 2-(2,5-difluoro-4-(6-((2-fluoro-4-(6-(pyrrolidin-1-yl)pyridin-3-yl)benzyl)oxy)pyridin-2-yl)benzyl)-1-(2-methoxyethyl)-1H-benzo[d]imidazole-6-carboxylic acid]: 26 nM; `COCCn1c(Cc2cc(F)c(-c3cccc(OCc4ccc(-c5cnn(C6CCNCC6)c5)nc4)n3)cc2F)nc2ccc(C(=O)O)cc21` [Example 229, 2-(2,5-difluoro-4-(6-((6-(1-(piperidin-4-yl)-1H-pyrazol-4-yl)pyridin-3-yl)methoxy)pyridin-2-yl)benzyl)-1-(2-methoxyethyl)-1H-benzo[d]imidazole-6-carboxylic acid]: 17.9 nM.
In the case of `Cn1ncc2cc(COc3cccc(-c4cc(F)c(Cc5nc6ccc(C(=O)O)cc6n5C[C@@H]5CCO5)cc4F)n3)sc21` [Example 230, 2-[[2,5-difluoro-4-[6-[(1-methylthieno[2,3-c]pyrazol-5-yl)methoxy]-2-pyridyl]phenyl]methyl]-3-[[(2S)-oxetan-2-yl]methyl]benzimidazole-5-carboxylic acid], a half-maximal effect (EC50) was put at 0.33 nM.
Next, `COCCn1c(Cc2cc(F)c(-c3cccc(OCc4ccc(C#CC5COC5)cc4F)n3)cc2F)nc2ccc(C(=O)O)cc21` [Example 231, 2-[[2,5-difluoro-4-[6-[[2-fluoro-4-[2-(oxetan-3-yl)ethynyl]phenyl]methoxy]-2-pyridyl]phenyl]methyl]-3-(2-methoxyethyl)benzimidazole-5-carboxylic acid]: 1.51 nM.
`COCCn1c(Cc2cc(F)c(-c3cccc(OCc4ccc(C#CC5CNC5)cc4F)n3)cc2F)nc2ccc(C(=O)O)cc21` [Example 232, 2-(4-(6-((4-(azetidin-3-ylethynyl)-2-fluorobenzyl)oxy)pyridin-2-yl)-2,5-difluorobenzyl)-1-(2-methoxyethyl)-1H-benzo[d]imidazole-6-carboxylic acid]: it took 5.65 nM to reach a half-maximal effect (EC50).
Then `COCCn1c(Cc2cc(F)c(-c3cccc(OCc4ccc(C#Cc5cncn5C)cc4F)n3)cc2F)nc2ccc(C(=O)O)cc21` [Example 233, 2-(2,5-difluoro-4-(6-((2-fluoro-4-((1-methyl-1H-imidazol-5-yl)ethynyl)benzyl)oxy)pyridin-2-yl)benzyl)-1-(2-methoxyethyl)-1H-benzo[d]imidazole-6-carboxylic acid], with 1.2 nM; and `COCCn1c(Cc2cc(F)c(-c3cccc(OCc4ccc(C#CC5CN(C)C5)cc4F)n3)cc2F)nc2ccc(C(=O)O)cc21` [Example 234, 2-[[2,5-difluoro-4-[6-[[2-fluoro-4-[2-(1-methylazetidin-3-yl)ethynyl]phenyl]methoxy]-2-pyridyl]phenyl]methyl]-3-(2-methoxyethyl)benzimidazole-5-carboxylic acid], with 5.9 nM; and `COCCn1c(Cc2cc(F)c(-c3cccc(OCc4ccc(C#CC5CN(C(=O)OC)C5)cc4F)n3)cc2F)nc2ccc(C(=O)O)cc21` [Example 235, 2-[[2,5-difluoro-4-[6-[[2-fluoro-4-[2-(1-methoxycarbonylazetidin-3-yl)ethynyl]phenyl]methoxy]-2-pyridyl]phenyl]methyl]-3-(2-methoxyethyl)benzimidazole-5-carboxylic acid], with 1.1 nM.
Next, `O=C(O)c1ccc2nc(Cc3cc(F)c(-c4cccc(OCc5cnc(-c6cn(C7COC7)nn6)cc5F)n4)cc3F)n(C[C@@H]3CCO3)c2c1` [Example 236, 2-[[2,5-difluoro-4-[6-[[4-fluoro-6-[1-(oxetan-3-yl)triazol-4-yl]-3-pyridyl]methoxy]-2-pyridyl]phenyl]methyl]-3-[[(2S)-oxetan-2-yl]methyl]benzimidazole-5-carboxylic acid]: 0.22 nM.
Turning to `COCCn1c(Cc2cc(F)c(-c3cccc(OCc4ccc(-c5cnn(Cc6cccnc6)c5)cc4F)n3)cc2F)nc2ccc(C(=O)O)cc21` [Example 237, 2-[[2,5-difluoro-4-[6-[[2-fluoro-4-[1-(3-pyridylmethyl)pyrazol-4-yl]phenyl]methoxy]-2-pyridyl]phenyl]methyl]-3-(2-methoxyethyl)benzimidazole-5-carboxylic acid], a half-maximal response (EC50) required 3.68 nM.
Then `N#CCn1ccc(COc2cccc(-c3cc(F)c(Cc4nc5ccc(C(=O)O)cc5n4C[C@@H]4CCO4)cc3F)n2)n1` [Example 238, 2-[[4-[6-[[1-(cyanomethyl)pyrazol-3-yl]methoxy]-2-pyridyl]-2,5-difluoro-phenyl]methyl]-3-[[(2S)-oxetan-2-yl]methyl]benzimidazole-5-carboxylic acid], with 8.61 nM; and `N#CCn1nccc1COc1cccc(-c2cc(F)c(Cc3nc4ccc(C(=O)O)cc4n3C[C@@H]3CCO3)cc2F)n1` [Example 239, (S)-2-(4-(6-((1-(cyanomethyl)-1H-pyrazol-5-yl)methoxy)pyridin-2-yl)-2,5-difluorobenzyl)-1-(oxetan-2-ylmethyl)-1H-benzo[d]imidazole-6-carboxylic acid], with 447 nM.
Then `NC(=O)c1ccc(COc2cccc(-c3cc(F)c(Cc4nc5ccc(C(=O)O)cc5n4C[C@@H]4CCO4)cc3F)n2)c(F)n1` [Example 240, 2-[[4-[6-[(6-carbamoyl-2-fluoro-3-pyridyl)methoxy]-2-pyridyl]-2,5-difluoro-phenyl]methyl]-3-[[(2S)-oxetan-2-yl]methyl]benzimidazole-5-carboxylic acid], with 1.13 nM; and `NC(=O)c1cc(F)c(COc2cccc(-c3cc(F)c(Cc4nc5c(F)cc(C(=O)O)cc5n4C[C@@H]4CCO4)cc3F)n2)cn1` [Example 241, (S)-2-(4-(6-((6-carbamoyl-4-fluoropyridin-3-yl)methoxy)pyridin-2-yl)-2,5-difluorobenzyl)-4-fluoro-1-(oxetan-2-ylmethyl)-1H-benzo[d]imidazole-6-carboxylic acid], with 0.12 nM; and `COc1cc(C(N)=O)ncc1COc1cccc(-c2cc(F)c(Cc3nc4ccc(C(=O)O)cc4n3C[C@@H]3CCO3)cc2F)n1` [Example 242, (S)-2-(4-(6-((6-carbamoyl-4-methoxypyridin-3-yl)methoxy)pyridin-2-yl)-2,5-difluorobenzyl)-1-(oxetan-2-ylmethyl)-1H-benzo[d]imidazole-6-carboxylic acid], with 0.02 nM.
Then `CNC(=O)c1cc(F)c(COc2cccc(-c3cc(F)c(Cc4nc5ccc(C(=O)O)cc5n4C[C@@H]4CCO4)cc3F)n2)cn1` [Example 243, 2-[[2,5-difluoro-4-[6-[[4-fluoro-6-(methylcarbamoyl)-3-pyridyl]methoxy]-2-pyridyl]phenyl]methyl]-3-[[(2S)-oxetan-2-yl]methyl]benzimidazole-5-carboxylic acid], with 0.17 nM.

As usually defined, the EC50 is the midpoint of the concentration-response curve.
